Experimental data: ChEMBL document CHEMBL4842390, “Amino-Heterocycle Tetrahydroisoquinoline CXCR4 Antagonists with Improved ADME Profiles via Late-Stage Buchwald Couplings” (ACS Med Chem Lett, 2021)

Experiments:
[1] = biological target: C-X-C chemokine receptor type 4 (Homo sapiens, UniProt P61073); experiment: Antagonist activity at CXCR4 receptor in human CCRF-CEM cells assessed as inhibition of SDF-1alpha-induced calcium release preincubated for 25 mins followed by SDF-1alpha addition and monitered for 90 sec; format: functional, cell-based
[2] = Metabolic stability in human liver microsomes assessed as parent compound remaining incubated for 10 mins in presence of NADPH; format: ADME, Microsome; conditions: read-out: Stabilty
[3] = Metabolic stability in rat liver microsomes assessed as parent compound remaining incubated for 10 mins in presence of NADPH; format: ADME, Microsome; conditions: read-out: Stabilty
[4] = Metabolic stability in mouse liver microsomes assessed as parent compound remaining incubated for 10 mins in presence of NADPH; format: ADME, Microsome; conditions: read-out: Stabilty
[5] = biological target: Cytochrome P450 2D6 (Homo sapiens, UniProt P10635); experiment: Inhibition of human recombinant CYP2D6 expressed in insect cells using AMMC as substrate preincubated for 30 mins followed by NADPH regenerating system addition and measured after 45 mins by fluorescence based assay; format: ADME
[6] = biological target: Cytochrome P450 3A4 (Homo sapiens, UniProt P08684); experiment: Inhibition of CYP3A4 (unknown origin); format: ADME
[7] = cells; conditions: Homo sapiens, CCRF-CEM
Description: Antagonist activity at muscarinic acetylcholine receptor in human CCRF-CEM cells assessed as inhibition of acetylcholine-induced calcium release preincubated for 25 mins followed by acetylcholine addition and monitered for 90 sec

[8] = Permeability of the compound at pH 7.4 incubated for 4 hrs by PAMPA; format: ADME; conditions: read-out: permeability
[9] = biological target: Cytochrome P450 2C9 (Homo sapiens, UniProt P11712); experiment: Inhibition of CYP2C9 (unknown origin); format: ADME
[10] = AUC (0 to 8 hrs) in CD-1 mouse at 30 mg/kg, po or at 3 mg/kg, iv measured up to 8 hrs by UPLC-MS/MS analysis; format: ADME, organism-based; design: dose 30 mg/kg, time <=8; conditions: in vivo
[11] = Volume of distribution in CD-1 mouse at 30 mg/kg, po or at 3 mg/kg, iv by UPLC-MS/MS analysis; format: ADME, organism-based; conditions: in vivo
[12] = Half life in CD-1 mouse at 30 mg/kg, po or at 3 mg/kg, iv by UPLC-MS/MS analysis; conditions: in vivo
[13] = Oral bioavailability in CD-1 mouse at 30 mg/kg measured upto 8 hrs by UPLC-MS/MS analysis; format: ADME, organism-based; conditions: in vivo

Chain of Cytochrome P450 3A4 (P08684 whole entry): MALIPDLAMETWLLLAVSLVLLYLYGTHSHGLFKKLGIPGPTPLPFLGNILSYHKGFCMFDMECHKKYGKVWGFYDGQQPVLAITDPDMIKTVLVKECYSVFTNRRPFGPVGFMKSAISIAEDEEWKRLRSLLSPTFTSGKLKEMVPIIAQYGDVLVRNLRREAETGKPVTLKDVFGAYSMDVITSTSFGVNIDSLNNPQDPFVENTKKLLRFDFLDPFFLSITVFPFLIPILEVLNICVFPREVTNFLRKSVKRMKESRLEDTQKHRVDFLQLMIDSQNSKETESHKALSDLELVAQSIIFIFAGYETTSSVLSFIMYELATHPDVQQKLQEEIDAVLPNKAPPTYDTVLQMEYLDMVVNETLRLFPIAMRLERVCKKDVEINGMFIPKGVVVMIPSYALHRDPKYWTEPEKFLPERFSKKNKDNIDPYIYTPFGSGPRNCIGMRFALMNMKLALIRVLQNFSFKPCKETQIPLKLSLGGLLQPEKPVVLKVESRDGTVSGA
Chain of C-X-C chemokine receptor type 4 (P61073 whole entry): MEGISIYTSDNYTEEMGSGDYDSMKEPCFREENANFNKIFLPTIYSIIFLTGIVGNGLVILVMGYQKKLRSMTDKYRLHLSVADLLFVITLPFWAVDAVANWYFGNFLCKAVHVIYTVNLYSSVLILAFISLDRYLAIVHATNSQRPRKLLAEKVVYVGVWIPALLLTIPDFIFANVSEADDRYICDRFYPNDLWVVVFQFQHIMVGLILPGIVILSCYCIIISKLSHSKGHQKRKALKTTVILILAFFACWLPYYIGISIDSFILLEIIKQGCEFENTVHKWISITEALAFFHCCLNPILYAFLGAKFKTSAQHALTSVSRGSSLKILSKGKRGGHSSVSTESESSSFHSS
Chain of Cytochrome P450 2D6 (P10635 whole entry): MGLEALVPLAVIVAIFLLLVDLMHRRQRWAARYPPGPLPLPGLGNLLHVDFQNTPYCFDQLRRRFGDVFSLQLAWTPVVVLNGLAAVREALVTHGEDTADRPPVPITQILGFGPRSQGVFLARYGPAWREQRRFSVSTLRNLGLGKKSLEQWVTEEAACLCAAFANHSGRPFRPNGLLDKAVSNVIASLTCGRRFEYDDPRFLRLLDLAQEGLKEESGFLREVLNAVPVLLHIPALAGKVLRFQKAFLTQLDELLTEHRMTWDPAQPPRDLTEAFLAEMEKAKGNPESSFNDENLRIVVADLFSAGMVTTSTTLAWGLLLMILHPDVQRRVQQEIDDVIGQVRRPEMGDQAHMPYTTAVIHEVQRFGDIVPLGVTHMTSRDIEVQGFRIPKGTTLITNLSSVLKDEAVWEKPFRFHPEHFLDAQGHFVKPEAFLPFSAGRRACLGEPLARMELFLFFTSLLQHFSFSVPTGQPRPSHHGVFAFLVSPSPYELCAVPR
Chain of Cytochrome P450 2C9 (P11712 whole entry): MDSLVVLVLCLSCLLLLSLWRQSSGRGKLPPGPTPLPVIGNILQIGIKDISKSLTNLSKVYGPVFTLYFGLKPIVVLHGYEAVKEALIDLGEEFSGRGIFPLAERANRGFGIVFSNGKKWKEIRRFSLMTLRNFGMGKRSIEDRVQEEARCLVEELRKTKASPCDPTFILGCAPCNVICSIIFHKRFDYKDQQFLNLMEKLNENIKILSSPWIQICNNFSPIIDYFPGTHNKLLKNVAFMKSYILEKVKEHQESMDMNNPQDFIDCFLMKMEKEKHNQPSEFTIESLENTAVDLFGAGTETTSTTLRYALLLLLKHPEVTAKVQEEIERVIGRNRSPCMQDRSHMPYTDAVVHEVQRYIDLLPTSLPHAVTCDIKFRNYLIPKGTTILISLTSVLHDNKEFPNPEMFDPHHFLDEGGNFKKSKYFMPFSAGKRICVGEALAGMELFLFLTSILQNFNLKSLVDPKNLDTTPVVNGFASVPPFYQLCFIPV

Row | IC50 [1] [µM] | remaining at 10 min [2] [%] | remaining at 10 min [3] [%] | remaining at 10 min [4] [%] | IC50 [5] [µM] | IC50 [6] [µM] | IC50 [7] [µM] | Papp at 4 h [8] [×10⁻⁶ cm/s] | IC50 [9] [µM] | AUC(0-t) [10] [ng·h/mL] | Vd [11] [L/kg] | half-life [12] [h] | bioavailability [13] [%] | SMILES
1 | 1.67 | 79.9 | 26.2 | 12.4 | > 20 | > 20 | > 16.7 | – | – | – | – | – | – | CN(C[C@@H]1Cc2c(cccc2NC2CCNCC2)CN1)[C@H]1CCCc2cccnc21
2 | 0.0109 | 67.5 | 4.55 | 18.5 | 15.4 | > 20 | 12.3 | 1.6 | – | – | – | – | – | CN(C)C1CCN(c2cccc3c2C[C@H](CN(C)[C@H]2CCCc4cccnc42)NC3)C1 (single isomer, unassigned; 37)
3 | 0.0181 | 75 | 9.79 | 10.9 | > 20 | > 20 | > 16.7 | – | – | – | – | – | – | CN(C[C@H]1Cc2c(cccc2NC2CCNCC2)CN1)[C@H]1CCCc2cccnc21
4 | 0.00956 | 100 | 35.3 | 32.9 | > 20 | > 20 | > 33.3 | 0.5 | – | – | – | – | – | CN1C[C@@H]2CN(c3cccc4c3C[C@H](CN(C)[C@H]3CCCc5cccnc53)NC4)C[C@@H]2C1
5 | 0.0114 | 87.3 | 1.78 | 24 | 18.6 | > 20 | 11.9 | 0.9 | – | – | – | – | – | CN1CC[C@H]2CN(c3cccc4c3C[C@H](CN(C)[C@H]3CCCc5cccnc53)NC4)C[C@H]21
6 | 0.0334 | 80.8 | 38.4 | 70.3 | 3.96 | > 20 | > 33.3 | – | – | – | – | – | – | CN(C[C@H]1Cc2c(cccc2N2CCC(N)CC2)CN1)[C@H]1CCCc2cccnc21
7 | 0.0103 | 86.7 | 38.1 | 54.7 | 7.81 | > 20 | 6.39 | – | – | – | – | – | – | CN(C[C@H]1Cc2c(cccc2N2C[C@H]3CNC[C@H]3C2)CN1)[C@H]1CCCc2cccnc21
8 | – | 100 | 75 | 100 | > 20 | > 20 | 0.826 | – | – | – | – | – | – | CN(C[C@H]1Cc2c(cccc2N[C@H]2CC[C@H](N)CC2)CN1)[C@H]1CCCc2cccnc21
9 | 0.0187 | 97.6 | 11.2 | – | 17.3 | > 20 | 2.9 | 1.9 | – | – | – | – | – | CN(C[C@H]1Cc2c(cccc2N2C[C@H]3CCN(C)[C@H]3C2)CN1)[C@H]1CCCc2cccnc21
10 | 0.0104 | – | 3.88 | 28.2 | 3.67 | > 20 | > 5.56 | 1.4 | – | – | – | – | – | CN(C)C1CCN(c2cccc3c2C[C@H](CN(C)[C@H]2CCCc4cccnc42)NC3)C1 (single isomer, unassigned; 36)
11 | 0.0359 | 78.4 | 52.4 | 70.2 | > 20 | > 20 | > 16.7 | 4.4 | 6.67 | – | – | – | – | CN(C)C1CCN(c2cccc3c2C[C@H](CN(C)[C@H]2CCCc4cccnc42)NC3)CC1
12 | – | – | – | – | – | – | – | – | – | 101 | 32.2 | 3.1 | 2.4 | NCCCCN(Cc1nc2ccccc2[nH]1)[C@H]1CCCc2cccnc21 [MAVORIXAFOR]

Row | SMILES | IC50 [1] [µM] | remaining at 10 min [2] [%] | remaining at 10 min [3] [%] | remaining at 10 min [4] [%] | IC50 [5] [µM] | IC50 [6] [µM] | IC50 [7] [µM] | Papp at 4 h [8] [×10⁻⁶ cm/s] | IC50 [9] [µM] | AUC(0-t) [10] [ng·h/mL] | Vd [11] [L/kg] | half-life [12] [h] | bioavailability [13] [%]
13 | CN1CCC(N(C)c2cccc3c2C[C@H](CN(C)[C@H]2CCCc4cccnc42)NC3)CC1 | 0.0134 | 88.8 | 6.52 | – | > 20 | > 20 | > 16.7 | 1 | – | – | – | – | –
